Columns and labels:
KRas^G12D = target: T1, KRas^G12D (Homo sapiens, UniProt P01116, G12D); assay: KRas binding assay (TR-FRET tracer displacement), KRas G12D
T1 construct: Biotinylated KRas (corresponding to amino acids 1-169, produced at Accelegan Inc.); biotin (biotinylated); purchased Accelegan Inc

KRas^G12R = target: T2, KRas^G12R (Homo sapiens, UniProt P01116, G12R); assay: KRas binding assay (TR-FRET tracer displacement), KRas G12R
T2 construct: Biotinylated KRas (corresponding to amino acids 1-169, produced at Accelegan Inc.); biotin (biotinylated); purchased Accelegan Inc

KRas^G12V = target: T3, KRas^G12V (Homo sapiens, UniProt P01116, G12V); assay: KRas binding assay (TR-FRET tracer displacement), KRas G12V
T3 construct: Biotinylated KRas (corresponding to amino acids 1-169, produced at Accelegan Inc.); biotin (biotinylated); purchased Accelegan Inc

[1] = test system: KRas-mediated phosphorylation of ERK in MKN1 cells; assay: Inhibition of KRas-mediated phosphorylation of ERK (Cisbio HTRF pERK), MKN1 cells; format: cell-based; details: Homo sapiens, MKN-1
Method in brief: (§1)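 Overnight culture at 37° C./5% CO2 in RPMI containing 10% FBS, seeded 6,000 cells per well, preceded the assay. A covered 4-hour incubation at room temperature followed, then HTRF signal for phosphorylated ERK was measured.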

[2] = test system: KRas-mediated phosphorylation of ERK in PSN1 cells; assay: Inhibition of KRas-mediated phosphorylation of ERK (Cisbio HTRF pERK), PSN1 cells; format: cell-based; details: Homo sapiens
Method in brief: as §1

[3] = test system: KRas-mediated phosphorylation of ERK in AsPC-1 cells; assay: Inhibition of KRas-mediated phosphorylation of ERK (Cisbio HTRF pERK), AsPC-1 cells; format: cell-based; details: Homo sapiens, ASPC1, AsPC-1 cells; HTRF pERK
Method in brief: (§2)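 Signal read by HTRF (d2/Cryptate antibody pair, 2 hr room-temperature incubation on lysate). Cells: 6,000 per well, 3 hr compound exposure. Titration: 10 uM highest, 3-fold, 10 points.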

[4] = test system: KRas-mediated phosphorylation of ERK in H727 cells; assay: Inhibition of KRas-mediated phosphorylation of ERK (Cisbio HTRF pERK), H727 cells; format: cell-based; details: Homo sapiens, NCI-H727, H727 cells; HTRF pERK
Method in brief: as §2

[5] = test system: KRas-mediated phosphorylation of ERK in H460 cells; assay: Inhibition of KRas-mediated phosphorylation of ERK (Cisbio HTRF pERK), H460 cells; format: cell-based; details: Homo sapiens; for inhibition at 0.1 µM: NCI-H460, 3 h, single point, 100 nM compound, 3 hrs; for IC50: NCI-H460, HTRF pERK
Method in brief: as §2

[6] = test system: KRas-mediated phosphorylation of ERK in HCT116 cells; assay: Inhibition of KRas-mediated phosphorylation of ERK (Cisbio HTRF pERK), HCT116 cells; format: cell-based; details: Homo sapiens; for inhibition at 0.1 µM: HCT-116, 3 h, single point, 100 nM compound, 3 hrs; for IC50: HCT-116, HTRF pERK
Method in brief: (§3)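 Min control wells contained 0.2 uM Trametinib, while test compounds ran as 10 doses (3-fold, top 10 uM; 0.8% DMSO final) on cells for 3 hrs. After 40 mins lysis at 4° C, lysates were probed with HTRF antibodies for 2 hrs at room temperature.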

[7] = test system: KRas-mediated phosphorylation of ERK in A549 cells; assay: Inhibition of KRas-mediated phosphorylation of ERK (Cisbio HTRF pERK), A549 cells; format: cell-based; details: Homo sapiens, HTRF pERK
Method in brief: as §3

T2 sequence (P01116 1-169 isoform P01116-2 G12R): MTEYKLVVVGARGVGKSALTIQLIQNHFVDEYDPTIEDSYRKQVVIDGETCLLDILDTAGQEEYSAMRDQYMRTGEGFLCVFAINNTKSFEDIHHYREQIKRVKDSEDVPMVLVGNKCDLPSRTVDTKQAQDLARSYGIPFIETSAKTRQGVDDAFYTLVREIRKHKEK
T1 sequence (P01116 1-169 isoform P01116-2 G12D): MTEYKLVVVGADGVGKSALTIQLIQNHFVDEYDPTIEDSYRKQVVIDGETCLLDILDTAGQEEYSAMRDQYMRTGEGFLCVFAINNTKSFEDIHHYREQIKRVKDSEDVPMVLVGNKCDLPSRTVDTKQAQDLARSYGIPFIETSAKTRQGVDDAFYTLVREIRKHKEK
T3 sequence (P01116 1-169 isoform P01116-2 G12V): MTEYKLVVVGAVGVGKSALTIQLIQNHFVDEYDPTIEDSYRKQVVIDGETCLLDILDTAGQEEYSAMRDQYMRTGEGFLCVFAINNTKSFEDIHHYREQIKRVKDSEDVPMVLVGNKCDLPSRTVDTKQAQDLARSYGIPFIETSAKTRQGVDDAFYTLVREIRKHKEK

Row | Structure (SMILES) | IC50 (KRas^G12D) [nM] | IC50 (KRas^G12R) [nM] | IC50 (KRas^G12V) [nM] | IC50 [1] [nM] | IC50 [2] [nM] | IC50 [3] [nM] | IC50 [4] [nM] | inhibition at 0.1 µM [5] [%] | inhibition at 0.1 µM [6] [%] | IC50 [7] [nM] | IC50 [5] [nM] | IC50 [6] [nM]
1 | CCc1c(F)ccc2cc(O)cc(-c3ncc4c(N5CCCC(C6(O)CCC6)C5)nc(OC[C@@]56CCCN5C[C@H](F)C6)nc4c3F)c12 (stereo partly drawn) [Example 593, 5-ethyl-6-fluoro-4-(8-fluoro-2-(((2R,7aS)-2-fluorotetrahydro-1H-pyrrolizin-7a(5H)-yl)methoxy)-4-(3-(1-hydroxycyclobutyl)piperidin-1-yl)pyrido[4,3-d]pyrimidin-7-yl)naphthalen-2-ol] | 72 | 7 | 10 | 293 | > 10000 | 1230 | 391 | 0 | -4 | – | – | –
2 | CCc1c(F)ccc2cc(O)cc(-c3ncc4c(N5CCCC6(CC(=O)N6)C5)nc(OC[C@]56CCCN5[C@H](COC(=O)N(C)C)CC6)nc4c3F)c12 (stereo partly drawn) [Example 715, ((3S,7aR)-7a-(((7-(8-ethyl-7-fluoro-3-hydroxynaphthalen-1-yl)-8-fluoro-4-(2-oxo-1,6-diazaspiro[3.5]nonan-6-yl)pyrido[4,3-d]pyrimidin-2-yl)oxy)methyl)hexahydro-1H-pyrrolizin-3-yl)methyl dimethylcarbamate] | 4 | 4 | 2 | 43 | 3620 | 97 | 153 | 42 | 8 | 344 | – | –
3 | CCc1c(F)ccc2cc(O)cc(-c3ncc4c(N5C[C@H](F)C[C@@H](OC)C5)nc(OC[C@@]56CCCN5C[C@H](F)C6)nc4c3F)c12 [Example 557, 5-ethyl-6-fluoro-4-(8-fluoro-4-((3R,5R)-3-fluoro-5-methoxypiperidin-1-yl)-2-(((2R,7aS)-2-fluorohexahydro-1H-pyrrolizin-7a-yl)methoxy)pyrido[4,3-d]pyrimidin-7-yl)naphthalen-2-ol] | 12 | 4 | 6 | 22 | > 10000 | 617 | 216 | – | – | 174 | 165 | 517
4 | CCc1c(F)ccc2cc(O)cc(-c3ncc4c(N5CCC[C@@](C)(O)C5)nc(OCC5(CNC)CC5)nc4c3F)c12 [Example 696, (R)-1-(7-(8-ethyl-7-fluoro-3-hydroxynaphthalen-1-yl)-8-fluoro-2-((1-((methylamino)methyl)cyclopropyl)methoxy)pyrido[4,3-d]pyrimidin-4-yl)-3-methylpiperidin-3-ol] | < 2 | 3 | < 2 | 123 | > 10000 | 690 | 948 | 21 | 5 | – | – | –
5 | CCc1c(F)ccc2cc(O)cc(-c3ncc4c(N5CCCC6(CNS(=O)(=O)C6)C5)nc(OC[C@@]56CCCN5C[C@H](F)C6)nc4c3F)c12 (stereo partly drawn) [Example 644, 7-(7-(8-ethyl-7-fluoro-3-hydroxynaphthalen-1-yl)-8-fluoro-2-(((2R,7aS)-2-fluorohexahydro-1H-pyrrolizin-7a-yl)methoxy)pyrido[4,3-d]pyrimidin-4-yl)-2-thia-3,7-diazaspiro[4.5]decane 2,2-dioxide] | 3 | < 2 | < 2 | 10 | 2620 | 147 | 340 | – | – | 299 | 160 | 411
6 | CCc1c(F)ccc2cc(O)cc(-c3ncc4c(N5CCC6CCC(C6)C5)nc(OC[C@@]56CCCN5C[C@H](F)C6)nc4c3F)c12 (stereo partly drawn) [Example 550, 4-(4-(3-azabicyclo[4.2.1]nonan-3-yl)-8-fluoro-2-(((2R,7aS)-2-fluorotetrahydro-1H-pyrrolizin-7a(5H)-yl)methoxy)pyrido[4,3-d]pyrimidin-7-yl)-5-ethyl-6-fluoronaphthalen-2-ol] | 47 | 8 | 14 | 645 | > 10000 | 590 | 293 | – | – | 423 | – | 1370
7 | CCc1c(F)ccc2cc(O)cc(-c3ncc4c(N5CCC(C)C(F)(F)CC5)nc(OC[C@@]56CCCN5C[C@H](F)C6)nc4c3F)c12 (stereo partly drawn) [Example 581, 4-(4-(4,4-difluoro-5-methylazepan-1-yl)-8-fluoro-2-(((2R,7aS)-2-fluorotetrahydro-1H-pyrrolizin-7a(5H)-yl)methoxy)pyrido[4,3-d]pyrimidin-7-yl)-5-ethyl-6-fluoronaphthalen-2-ol] | 160 | 41 | 39 | 527 | > 10000 | 1370 | 1170 | -24 | 21 | – | – | –
8 | CCc1c(F)ccc2cc(O)cc(-c3ncc4c(N[C@@H](C)c5cc(C(=O)N(C)C)nn5C)nc(OC[C@@]56CCCN5C[C@H](F)C6)nc4c3F)c12 [Example 650, 5-((S)-1-((7-(8-ethyl-7-fluoro-3-hydroxynaphthalen-1-yl)-8-fluoro-2-(((2R,7aS)-2-fluorohexahydro-1H-pyrrolizin-7a-yl)methoxy)pyrido[4,3-d]pyrimidin-4-yl)amino)ethyl)-N,N,1-trimethyl-1H-pyrazole-3-carboxamide] | 14 | 3 | < 2 | 256 | > 10000 | 1320 | 162 | – | – | 847 | – | 2410
9 | CCc1c(F)ccc2cc(O)cc(-c3ncc4c(N5CCC(Cn6cccn6)C5)nc(OC[C@@]56CCCN5C[C@H](F)C6)nc4c3F)c12 (stereo partly drawn) [Example 587, 4-(4-(3-((1H-pyrazol-1-yl)methyl)pyrrolidin-1-yl)-8-fluoro-2-(((2R,7aS)-2-fluorotetrahydro-1H-pyrrolizin-7a(5H)-yl)methoxy)pyrido[4,3-d]pyrimidin-7-yl)-5-ethyl-6-fluoronaphthalen-2-ol] | 323 | 74 | 64 | 926 | > 10000 | 2070 | 3090 | 6 | -12 | – | – | –
10 | CCc1c(F)ccc2cc(O)cc(-c3ncc4c(/C=C/c5ccnn5C)nc(OC[C@@]56CCCN5C[C@H](F)C6)nc4c3F)c12 [Example 543, 5-ethyl-6-fluoro-4-(8-fluoro-2-(((2R,7aS)-2-fluorotetrahydro-1H-pyrrolizin-7a(5H)-yl)methoxy)-4-((E)-2-(1-methyl-1H-pyrazol-5-yl)vinyl)pyrido[4,3-d]pyrimidin-7-yl)naphthalen-2-ol] | 1690 | 354 | 152 | 5950 | > 10000 | > 10000 | 1610 | -1 | 5 | – | – | –
11 | CCc1c(F)ccc2c(Br)c(O)cc(-c3ncc4c(N5C[C@@H]6C[C@H](C5)[C@H](O)C6)nc(OC[C@@]56CCCN5C[C@H](F)C6)nc4c3F)c12 [Example 537, (1R,5R,6R)-3-(7-(4-bromo-8-ethyl-7-fluoro-3-hydroxynaphthalen-1-yl)-8-fluoro-2-(((2R,7aS)-2-fluorohexahydro-1H-pyrrolizin-7a-yl)methoxy)pyrido[4,3-d]pyrimidin-4-yl)-3-azabicyclo[3.2.1]octan-6-ol] | 407 | 263 | 244 | 1480 | > 10000 | 2020 | 1180 | 29 | 2 | – | – | –
12 | CCc1c(F)ccc2cc(O)cc(-c3ncc4c(N5CCCC(O)(C(N)=O)C5)nc(OC[C@@]56CCCN5C[C@H](F)C6)nc4c3F)c12 (stereo partly drawn) [Example 574, 1-(7-(8-ethyl-7-fluoro-3-hydroxynaphthalen-1-yl)-8-fluoro-2-(((2R,7aS)-2-fluorohexahydro-1H-pyrrolizin-7a-yl)methoxy)pyrido[4,3-d]pyrimidin-4-yl)-3-hydroxypiperidine-3-carboxamide] | 7 | 7 | 5 | 78 | > 10000 | 3420 | 1130 | 19 | 18 | – | – | –

— patent US20260015350A1, “AZAQUINAZOLINE PAN-KRAS INHIBITORS” (Mirati Therapeutics, Inc., priority 2022, published 2026)
